Several values for one entry are separate records, joined by “and”; a condition that tells them apart may be missing. Identical values can stand only once. Like-named read-outs stand apart in the source and are kept apart here.
Legend:
[1] = tested on: LTD4-induced bronchoconstriction; test: LTD4-induced bronchoconstriction in anaesthetized guinea-pigs; type: in vivo, guinea-pig; details: Cavia porcellus
Experimental: The leukotriene antagonistic effect was tested in vivo on LTD4 -induced bronchoconstriction in anaesthetized guinea-pigs^3. […] The ED50 values represent the dose inhibiting the leukotriene induced bronchoconstriction by 50%. The ED50 values were calculated by regression analysis of 2-3 doses.

[2] = molecular target: T1, LTD4 receptor (Cavia porcellus, UniProt Q2NNR5); test: Receptor binding: direct competition with [^3 H]LTD4 on guinea-pig lung membranes; details: mean ± SD (n) or individual values
T1 construct: from tissue; host or cells: guinea-pig lung membranes
T1 sequence (Q2NNR5 1-340): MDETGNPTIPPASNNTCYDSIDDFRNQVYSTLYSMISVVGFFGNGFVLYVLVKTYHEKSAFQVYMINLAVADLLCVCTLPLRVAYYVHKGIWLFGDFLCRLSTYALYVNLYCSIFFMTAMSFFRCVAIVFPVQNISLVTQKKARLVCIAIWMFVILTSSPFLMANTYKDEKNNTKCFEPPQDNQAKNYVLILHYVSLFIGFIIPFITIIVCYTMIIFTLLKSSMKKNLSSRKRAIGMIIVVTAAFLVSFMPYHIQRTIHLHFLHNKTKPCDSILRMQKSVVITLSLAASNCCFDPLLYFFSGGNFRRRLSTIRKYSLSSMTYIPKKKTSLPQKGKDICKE
Experimental: It is of importance to investigate the receptor binding properties of leukotriene antagonists in relation to their inhibition of smooth muscle contraction. Receptor binding studies may be performed with guinea-pig lung membranes in a direct competition assay between a leukotrien antagonist and [^3 H]LTD4 for binding to the LTD4 receptor^3,4. A pIC50 value is determined as the negative logarithm of the molar concentration of antagonist inhibiting [^3 H]LTD4 binding by 50%. The pIC50 values for the compounds of the present invention are equal to or higher than those for the reference compound SR3040^5 (see Table I)

[3] = iv, 10 min, i.v., 10 min before bronchoconstriction
[4] = po, 4 h before bronchoconstriction
[5] = po, 24 h before bronchoconstriction
[6] = absence of albumin, read-out: pIC50, binding of [^3 H]LTD4, absence of albumin (converted)
[7] = presence of 0.1% human serum albumin, read-out: pIC50, binding of [^3 H]LTD4, presence of albumin (converted)
[8] = po, 48 h before bronchoconstriction

| SMILES | ED50 [1, 3] | ED50 [1, 4] | ED50 [1, 5] | IC50 [2, 6] | IC50 [2, 7] | ED50 [1, 8] | ED50 ([1]; po, 72 h before bronchoconstriction) |
| --- | --- | --- | --- | --- | --- | --- | --- |
| OC[C@H](O)[C@H](Nc1cccc(/C=C/c2ccc3ccc(Cl)cc3n2)c1)c1ccccc1 [Example 3] | 0.3 mg/kg | 0.956 mg/kg | 20.3 mg/kg | 5.01 nM and 6.31 nM | 3.98 nM and 2.51 nM |  |  |
| OC[C@H](O)[C@H](Nc1cccc(/C=C/c2ccc3cc(F)c(F)cc3n2)c1)c1ccccc1 [Example 7, (+)-2R,3R-E-3-N-[3-2-(6,7-difluoroquinolin-2-yl)ethenyl]-phenylamino-3-phenyl-1,2-propandiol] | 0.058 mg/kg | 1.64 mg/kg | 4.64 mg/kg | 1.58 nM | 0.794 nM | 9.73 mg/kg | > 30 mg/kg |
| OC[C@@H](O)[C@@H](Nc1cccc(/C=C/c2ccc3cc(F)c(F)cc3n2)c1)c1ccccc1 [Example 8] | 0.18 mg/kg |  | 14.9 mg/kg | 1 nM | 0.501 nM | > 30 mg/kg |  |
| OC[C@@H](O)[C@@H](Nc1cccc(/C=C/c2ccc3ccc(Cl)cc3n2)c1)c1ccccc1 [Example 4] | 0.35 mg/kg | 3.63 mg/kg | 8.66 mg/kg | 3.98 nM | 1.26 nM and 2 nM | > 30 mg/kg |  |
| OC[C@H](O)[C@H](Nc1cccc(/C=C/c2ccc3ccc(F)cc3n2)c1)c1ccccc1 [Example 5] |  |  |  | 3.98 nM | 2.51 nM |  |  |
| OC[C@@H](O)[C@@H](Nc1cccc(/C=C/c2ccc3ccc(F)cc3n2)c1)c1ccccc1 [Example 6] |  |  |  | 1.58 nM | 1.58 nM |  |  |
